{"source": "patent US8658592B2", "about": "“Biologically active peptides and their new uses” (priority 2005, dated 2014)", "key": {"hepatocarcinoma H22": {"system": "hepatocarcinoma H22", "assay": "survival of mice transplanted with H22 hepatocarcinoma", "type": "in vivo, BALB/c mice", "description": "Healthy BALB/c mice were randomized into groups of CMS-024.04, CMS-025.05, CMS-024.14, and CMS-024.16 (80 μg/kg/day), 5-Fu (20 mg/kg/day, once for every two days), saline (0.2 ml/day), and normal group (without tumor cell inoculation).\nMice inoculated with hepatocarcinomas for 6-8 days were sacrificed. The ascites was collected and the cell concentration adjusted to 5×10^7/ml with D-Hanks' solution. 0.2 ml of this was inoculated intraperitoneally to each BALB/c mouse except for the normal controls.\nAdministration of test substance was started on the next day after the tumor cell inoculation. The peptides and saline were applied daily and 5-FU once every two days for 60 continuous days or until the death of the mice.\nThe time of death was recorded and survival time prolongation calculated. Survival time prolongation was calculated as below: Survival prolongation (%)=(Average survival days of test group)−(Average survival days of saline control group)/(Average survival days of saline group)×100%."}, "[1]": {"system": "human gastric carcinoma BGC-823 xenograft", "assay": "nude mice-transplanted human gastric carcinoma BGC-823 xenograft", "type": "in vivo, BALB/c (nu/nu) nude mice", "conditions": "20 mg/Kg/day i.p., 30 days", "description": "Hunan gastric carcinoma cell line BGC-823 at log phase were adjusted to the concentration of 2×10^7/ml and then inoculated subcutaneously to the back of nude mice (0.1 ml per mouse). The inoculated animals were randomized into groups of CMS024-16 (160 μg/kg/day, 320 μg/kg/day, and 640 μg/kg/day, all at 0.2 ml/day), positive control (5-Fu, 20 mg/kg/day at 0.2 ml/day), and negative control (normal saline, 0.2 ml/day). Administration of test substances by intraperitoneal injection was started on the next day after tumor implantation once per day for 30 continuous days. On the next day after the last injection, the tumor masses were collected and their weights determined Inhibition rate=(Mean weight of negative control−Mean weight of test group)/(Mean weight of negative control)×100%"}, "skin allograft": {"system": "skin allograft", "assay": "survival of skin allograft in mice (CMS-014)", "type": "in vivo, Balb/c mice (C57BL/6 donors)", "description": "Half of the mice were male and half were female.\nThe test substances were dissolved in 0.5 ml saline and intraperitoneally injected for 5 days before the skin transplantation, followed by daily injection until the end point of rejection of the skin graft.\nA patch of hair at the back of Balb/c mice was removed by 8% Na2S solution. On the next day, a wound bed of approximately 1 cm^2 was produced by removing the skin surgically, and then a piece of full-thickness tail skin of 1 cm^2 from sex-matched donor C57BL/6J mice was placed onto the wound bed. The surgical site was covered and protected with a layer of paraffin gauze, and a covering plaster was applied. The plaster was removed 6 days after transplantation^[1], and the recipient mice were monitored daily for the viability of the allograft. The end point of rejection was taken as only less than 10% of the allograft remained viable^[2]."}, "[2]": {"system": "Balb/c mice swimming time model", "assay": "exhaustive swimming time of mice (Example 11)", "type": "in vivo", "conditions": "1000 u/kg/day, 3 times per week", "description": "Balb/c male mice were randomized into groups of CMS-001.30 (20 μg/kg/day), CMS-001.31 (20 μg/kg/day), EPO (1000 u/kg/day, three times per week), and saline control. The test substance was dissolved in 0.5 ml saline and applied intraperitoneally once per day for 30 continuous days (EPO was replaced with saline if EPO was not applied). On the tenth day, the mice were trained to swim for 10 min at water temperature of 25±1° C. 30 min after the last test substance administration, the mice were placed to swim in the swimming tank (50 cm×50 cm×40 cm). The depth of water was 30 cm and water temperature 25±1° C. The limbs of the mice were kept moving in the whole process. The swimming (min) time of the mice until death was recorded. Exhaustive swimming time extension rate (ESTR) (%)=(Mean exhaustive swimming time of test group−Mean exhaustive swimming time of saline control)/(Mean exhaustive swimming time of saline control)×100%. 1.4 Statisitics"}, "BALB/c mice [3]": {"system": "BALB/c mice", "assay": "liver glycogen level of mice", "type": "in vivo", "description": "The mice were randomized into groups of CMS-001 (20 μg/kg/day, 5 μg/kg/day), CMS-008 (500 μg/kg/day, 125 μg/kg/day), and saline control. The test substance was administered by intraperitoneal injection once per day for 30 continuous days. A week after the start the of the test substance administration, the mice were trained to swim for 10 min, at water temperature of 25±1° C. 30 min after the last injection, the mice were killed by cervical dislocation and the liver was dissected, washed with saline, and blotted dry with filter paper. About 100 mg liver was accurately weighed and the liver glycogen level was determined by the Anthracene Ketone reagent kit. Glycogen weight (mg) in every 100 g of liver=DU/DS×0.5×homogenization liquid vol./liver weight(g)×100×0.9."}, "BALB/c mice [4]": {"system": "BALB/c mice", "assay": "serum urea nitrogen level after exercise", "type": "in vivo", "description": "(§1) The mice were randomized into groups of CMS-001 (20 μg/kg/day, 5 μg/kg/day), CMS-008 (500 μg/kg/day, 125 μg/kg/day), and saline control. The test substance was administered by intraperitoneal injection once per day for 30 continuous days. A week after the start the of the test substance administration, the mice were trained to swim for 10 min, at water temperature of 25±1° C. 30 min after the last injection, the mice were placed to swim in the swimming tank without addition of weight for 90 min, at water depth of 30 cm temperature of 30±1° C. The mice were then allowed to rest for 30 min, and blood was collected from the orbital sinus. The serum was isolated and the BUN was determined by a fully automated Biochemistry Analyser."}, "BALB/c mice [5]": {"system": "BALB/c mice", "assay": "serum SOD, MDA, AST, ALT levels after exhaustive exercise", "type": "in vivo", "conditions": "500 μg/kg/day", "description": "as §1, with “weight” for “weight for 90 min,”, “cm and” for “cm”, “25±1° C.^[4]. By the first time the mice sunk, the” for “30±1° C. The”, “rescued” for “then allowed to rest for 30 min,”, “sinus immediately.” for “sinus.”, “MDA, SOD, AST, and ALT levels determined.” for “BUN was determined by a fully automated Biochemistry Analyser.”"}, "[6]": {"system": "BALB/c mice exhaustive swimming model", "assay": "exhaustive swimming time of mice", "type": "in vivo", "conditions": "30 days", "description": "(§2) The mice were randomized into groups of CMS-001 (20 μg/kg/day, 5 μg/kg/day), CMS-008 (500 μg/kg/day, 125 μg/kg/day), and saline control. The test substance was administered by intraperitoneal injection once per day for 30 continuous days. A week after the start the of the test substance administration, the mice were trained to swim for 10 min, at water temperature of 25±1° C.\n30 min after the last injection, the mice were weighed, and lead pieces corresponding to 5% of the body weight were wrapped to the tails of the mice at about 1 cm away from the body. The mice were placed in the swimming tank, at water depth of 30 cm and temperature of 25±1° C. The limbs of the mice were kept moving in the whole process. The time of swimming until the death was recorded."}, "BALB/c mice [7]": {"system": "BALB/c mice", "assay": "blood lactic acid level of mice after exercise", "type": "in vivo", "conditions": "for Lactic acid elimination after rest: 20 min rest", "description": "as §2\n30 min after the last injection, 20 μl of blood was first collected from the orbital sinus. The mice were then weighed, and lead pieces corresponding to 4% of the body weight were wrapped to the tails of the mice at about 1 cm away from the body. The mice were placed to swim in the swimming tank for 10 min, at water depth of 30 cm and temperature of 30±1° C. The limbs of the mice were kept moving in the whole process. Immediately after the exercise and after resting for 20 min, 20 μl of blood was collected from the orbital sinus again. The blood was added into 40 μl hypotonic buffer and sonicated. Lactic acid level in the blood was determined by the lactic acid analyzer.\nThe amount of lactic acid increase after exercise is calculated based on the amount of lactic acid level immediately after exercise minus the lactic acid level before exercise.\nThe amount of lactic acid elimination after rest was calculated based on the amount of lactic acid level immediately after exercise minus the lactic acid level after rest."}, "[8]": {"conditions": "Table 6.1 experiment, 20 mg/kg once every two days"}, "[9]": {"conditions": "Table 6.2 experiment, 20 mg/kg once every two days"}, "[10]": {"conditions": "Table 6.2 experiment, 80 μg/kg daily i.p."}}, "note": "Marks after values point to notes of the source that are not given here. Square brackets hold non-standard residues; d marks the D form. Ends that are not written are not given here. Tyr(3,5-Br2) = N[C@@H](Cc1cc(Br)c(O)c(Br)c1)C(=O)O", "data": [{"molecule": "O=c1[nH]cc(F)c(=O)[nH]1", "note": "[5-Fu, 5-fluorouracil, reference compound]", "values": [{"measurement": "Survival Prolongation", "setting": "hepatocarcinoma H22; [8]", "value": "84.5* %"}, {"measurement": "Survival time (first column)", "setting": "hepatocarcinoma H22; [8]", "value": "30.0 ± 2.0", "unit": "days"}, {"measurement": "Survival time (second column)", "setting": "hepatocarcinoma H22; [8]", "value": "32.5 ± 6.3", "unit": "days"}, {"measurement": "Survival Prolongation", "setting": "hepatocarcinoma H22; [9]", "value": 33.3, "unit": "%"}, {"measurement": "Survival time (first column)", "setting": "hepatocarcinoma H22; [9]", "value": "18.0 ± 0.4", "unit": "days"}, {"measurement": "Survival time (second column)", "setting": "hepatocarcinoma H22; [9]", "value": "24.5 ± 11.1", "unit": "days"}, {"measurement": "Inhibition rate", "setting": "[1]", "value": "40.8* %"}, {"measurement": "Tumor weight", "setting": "[1]", "value": "1.70 ± 0.70", "unit": "g"}]}, {"molecule": "(3,5-dibromo-Tyr)-Ser-Leu ([Tyr(3,5-Br2)]-Ser-Leu) [CMS-024.14]", "values": [{"measurement": "survival of mice transplanted with H22 tumor cells", "setting": "hepatocarcinoma H22; 80 μg/kg/day, vs saline control P<0.05", "value": "prolong the survival"}, {"measurement": "Survival Prolongation", "setting": "hepatocarcinoma H22; [10]", "value": 50.3, "unit": "%"}, {"measurement": "Survival time (first column)", "setting": "hepatocarcinoma H22; [10]", "value": "16.0 ± 0.0", "unit": "days"}, {"measurement": "Survival time (second column)", "setting": "hepatocarcinoma H22; [10]", "value": "27.6 ± 8.5", "unit": "days"}]}, {"molecule": "AAHHPDDFNPSV [CMS-014]", "values": [{"measurement": "MST (mean survival time of skin allograft)", "setting": "skin allograft; 125 μg/kg/day i.p.", "value": "10.0 ± 0.5", "unit": "days"}, {"measurement": "MST (mean survival time of skin allograft)", "setting": "skin allograft; 250 μg/kg/day i.p.", "value": "9.8 ± 0.5", "unit": "days"}, {"measurement": "MST (mean survival time of skin allograft)", "setting": "skin allograft; 500 μg/kg/day i.p.", "value": "9.8 ± 0.4", "unit": "days"}]}, {"molecule": "Erythropoietin [EPO, reference compound]", "values": [{"measurement": "ESTR (exhaustive swimming time extension rate)", "setting": "[2]", "value": "31.3* %"}, {"measurement": "Swimming time", "setting": "[2]", "value": "126.1 ± 20.4", "unit": "min"}]}, {"molecule": "KAVGHLDDLPGAL [CMS-008]", "values": [{"measurement": "liver glycogen", "setting": "BALB/c mice [3]; 125 μg/kg/day", "value": "1275 ± 726", "unit": "mg/100 g liver tissue"}, {"measurement": "liver glycogen", "setting": "BALB/c mice [3]; 500 μg/kg/day", "value": "1408 ± 457", "unit": "mg/100 g liver tissue"}, {"measurement": "Urea Nitrogen", "setting": "BALB/c mice [4]; 125 μg/kg/day", "value": "7.2 ± 2.3", "unit": "mmol/L"}, {"measurement": "Urea Nitrogen", "setting": "BALB/c mice [4]; 500 μg/kg/day", "value": "7.1 ± 2.0", "unit": "mmol/L"}, {"measurement": "ALT", "setting": "BALB/c mice [5]", "value": "32.9 ± 5.2", "unit": "U/L"}, {"measurement": "AST", "setting": "BALB/c mice [5]", "value": "116.6 ± 18.8", "unit": "U/L"}, {"measurement": "MDA", "setting": "BALB/c mice [5]", "value": "4.1 ± 0.4", "unit": "nmol/L"}, {"measurement": "SOD", "setting": "BALB/c mice [5]", "value": "415.7 ± 31.5", "unit": "U/ml"}, {"measurement": "Swimming time", "setting": "[6]; 125 μg/kg/day i.p.", "value": "106.5 ± 19.4", "unit": "min"}, {"measurement": "Swimming-time extension", "setting": "[6]; 125 μg/kg/day i.p.", "value": "57.9* %"}, {"measurement": "Swimming time", "setting": "[6]; 500 μg/kg/day i.p.", "value": "116.5 ± 17.7", "unit": "min"}, {"measurement": "Swimming-time extension", "setting": "[6]; 500 μg/kg/day i.p.", "value": "72.7* %"}, {"measurement": "Lactic acid increase after exercise", "setting": "BALB/c mice [7]; 125 μg/kg/day", "value": "2.70 ± 0.15", "unit": "mmol/L"}, {"measurement": "Lactic acid increase after exercise", "setting": "BALB/c mice [7]; 500 μg/kg/day", "value": "2.23 ± 0.30", "unit": "mmol/L"}, {"measurement": "Lactic acid elimination after rest", "setting": "BALB/c mice [7]; 125 μg/kg/day", "value": "3.62 ± 0.57", "unit": "mmol/L"}, {"measurement": "Lactic acid elimination after rest", "setting": "BALB/c mice [7]; 500 μg/kg/day", "value": "3.71 ± 0.22", "unit": "mmol/L"}]}]}
